According to patent US20220009931A1, “NOVEL UREA 6,7-DIHYDRO-4H-PYRAZOLO[1,5-A]PYRAZINES ACTIVE AGAINST THE HEPATITIS B VIRUS (HBV)” (AICURIS GMBH & CO. KG, priority 2018, published 2022):
pEC50: −log10 of the molar value.

test system: HBV; conditions: Hepatitis B virus, HePAD38, 144 h, read-out: Cell Activity

`O=C(Nc1ccc(F)c(Cl)c1)N1CCn2nc(NC3CCOC3)cc2C1` (centres unmarked) [Example 1, N-(3-chloro-4-fluorophenyl)-2-[(oxolan-3-yl)amino]-4H,5H,6H,7H-pyrazolo[1,5-a]pyrazine-5-carboxamide] and `CC(Nc1cc2n(n1)CCN(C(=O)Nc1ccc(F)c(Cl)c1)C2)C1CCOC1` (centres unmarked) [Example 26, N-(3-chloro-4-fluorophenyl)-2-{[1-(oxolan-3-yl)ethyl]amino}-4H,5H,6H,7H-pyrazolo[1,5-a]pyrazine-5-carboxamide] fall in the same range of pEC50: 5.00 to 6.00 for the first, 5.00 to 6.00 for the second.

First: O=C(Nc1ccc(F)c(Cl)c1)N1CCn2nc(NC3CCC(O)CC3)cc2C1 (centres unmarked) [Example 2, N-(3-chloro-4-fluorophenyl)-2-[(4-hydroxycyclohexyl)amino]-4H,5H,6H,7H-pyrazolo[1,5-a]pyrazine-5-carboxamide]
Second: O=C(Nc1ccc(F)c(Cl)c1)N1CCn2nc(N[C@H]3CC[C@H](O)CC3)cc2C1 [Example 35, N-(3-chloro-4-fluorophenyl)-2-{[(1r,4r)-4-hydroxycyclohexyl]amino}-4H,5H,6H,7H-pyrazolo[1,5-a]pyrazine-5-carboxamide]
The pEC50 of the first is higher: > 6.00 for the first, 5.00 to 6.00 for the second. The first is the more potent here.

Compared with `CC1Cn2nc(NC(=O)C3CCOC3)cc2CN1C(=O)Nc1ccc(F)c(Cl)c1` (centres unmarked) [Example 3, N-(3-chloro-4-fluorophenyl)-6-methyl-2-(oxolane-3-amido)-4H,5H,6H,7H-pyrazolo[1,5-a]pyrazine-5-carboxamide], `CC1Cn2nc(NCC3CCOC3)cc2CN1C(=O)Nc1ccc(F)c(Cl)c1` (centres unmarked) [Example 4] is lower in pEC50: > 6.00 for the first, 5.00 to 6.00 for the second. The first is the more potent here.

`CC(=O)Nc1cc2n(n1)CCN(C(=O)Nc1ccc(F)c(Cl)c1)C2` [Example 5, N-(3-chloro-4-fluorophenyl)-2-acetamido-4H,5H,6H,7H-pyrazolo[1,5-a]pyrazine-5-carboxamide] and `O=C(Nc1cc2n(n1)CCN(C(=O)Nc1ccc(F)c(Cl)c1)C2)C1CCOC1` (centres unmarked) [Example 9, N-(3-chloro-4-fluorophenyl)-2-(oxolane-3-amido)-4H,5H,6H,7H-pyrazolo[1,5-a]pyrazine-5-carboxamide] cannot be ordered by pEC50: > 6.00 for the first, > 6.00 for the second.

`O=C(Nc1ccc(F)c(Cl)c1)N1CCn2nc(NCC3CCOCC3)cc2C1` [Example 6, N-(3-chloro-4-fluorophenyl)-2-{[(oxan-4-yl)methyl]amino}-4H,5H,6H,7H-pyrazolo[1,5-a]pyrazine-5-carboxamide] and `O=C(Nc1ccc(F)c(Cl)c1)N1CCn2nc(NCC3CCOC3)cc2C1` (centres unmarked) [Example 10, N-(3-chloro-4-fluorophenyl)-2-{[(oxolan-3-yl)methyl]amino}-4H,5H,6H,7H-pyrazolo[1,5-a]pyrazine-5-carboxamide] fall in the same range of pEC50: 5.00 to 6.00 for the first, 5.00 to 6.00 for the second.

`CC1Cn2nc(N)cc2CN1C(=O)Nc1ccc(F)c(Cl)c1` (centres unmarked) [Example 7, 2-amino-N-(3-chloro-4-fluorophenyl)-6-methyl-4H,5H,6H,7H-pyrazolo[1,5-a]pyrazine-5-carboxamide] and `CC(CO)CNc1cc2n(n1)CCN(C(=O)Nc1ccc(F)c(Cl)c1)C2` (centres unmarked) [Example 23, N-(3-chloro-4-fluorophenyl)-2-[(3-hydroxy-2-methylpropyl)amino]-4H,5H,6H,7H-pyrazolo[1,5-a]pyrazine-5-carboxamide] fall in the same range of pEC50: 5.00 to 6.00 for the first, 5.00 to 6.00 for the second.

`O=C(Nc1cc2n(n1)CCN(C(=O)Nc1ccc(F)c(Cl)c1)C2)C1CCOCC1` [Example 8, N-(3-chloro-4-fluorophenyl)-2-(oxane-4-amido)-4H,5H,6H,7H-pyrazolo[1,5-a]pyrazine-5-carboxamide] and `O=C(Nc1cc2n(n1)CCN(C(=O)Nc1ccc(F)c(Cl)c1)C2)C1CCN(C2CC2)CC1` [Example 31, N-{5-[(3-chloro-4-fluorophenyl)carbamoyl]-4H,5H,6H,7H-pyrazolo[1,5-a]pyrazin-2-yl}-1-cyclopropylpiperidine-4-carboxamide] cannot be ordered by pEC50: > 6.00 for the first, > 6.00 for the second.

`COCC1(S(=O)(=O)Nc2cc3n(n2)CCN(C(=O)Nc2ccc(F)c(Cl)c2)C3)CC1` [Example 11, N-(3-chloro-4-fluorophenyl)-2-[1-(methoxymethyl)cyclopropanesulfonamido]-4H,5H,6H,7H-pyrazolo[1,5-a]pyrazine-5-carboxamide] and `O=C(Nc1ccc(F)c(Cl)c1)N1CCn2nc(NS(=O)(=O)C3(CO)CC3)cc2C1` [Example 13, N-(3-chloro-4-fluorophenyl)-2-[1-(hydroxymethyl)cyclopropanesulfonamido]-4H,5H,6H,7H-pyrazolo[1,5-a]pyrazine-5-carboxamide] cannot be ordered by pEC50: > 6.00 for the first, > 6.00 for the second.

First: O=C(Nc1ccc(F)c(Cl)c1)N1CCn2nc(NS(=O)(=O)C3CC3)cc2C1 [Example 12, N-(3-chloro-4-fluorophenyl)-2-cyclopropanesulfonamido-4H,5H,6H,7H-pyrazolo[1,5-a]pyrazine-5-carboxamide]
Second: O=C(Nc1ccc(F)c(Cl)c1)N1CCn2nc(N[C@@H]3CCC[C@H](O)C3)cc2C1 [Example 34, N-(3-chloro-4-fluorophenyl)-2-{[(1R,3S)-3-hydroxycyclohexyl]amino}-4H,5H,6H,7H-pyrazolo[1,5-a]pyrazine-5-carboxamide]
The pEC50 of the first is higher: > 6.00 for the first, 5.00 to 6.00 for the second.

`O=C(Nc1ccc(F)cc1)N1CCn2nc(NS(=O)(=O)C3(CO)CC3)cc2C1` [Example 14, N-(4-fluorophenyl)-2-[1-(hydroxymethyl)cyclopropanesulfonamido]-4H,5H,6H,7H-pyrazolo[1,5-a]pyrazine-5-carboxamide] and `O=C(Nc1ccc(F)c(Cl)c1)N1CCn2nc(NC3(CO)CCC3)cc2C1` [Example 32, N-(3-chloro-4-fluorophenyl)-2-{[1-(hydroxymethyl)cyclobutyl]amino}-4H,5H,6H,7H-pyrazolo[1,5-a]pyrazine-5-carboxamide] cannot be ordered by pEC50: > 4.00 for the first, > 6.00 for the second.

`COCC1(CNc2cc3n(n2)CCN(C(=O)Nc2ccc(F)c(Cl)c2)C3)CC1` [Example 15, N-(3-chloro-4-fluorophenyl)-2-({[1-(methoxymethyl)cyclopropyl]methyl}amino)-4H,5H,6H,7H-pyrazolo[1,5-a]pyrazine-5-carboxamide] and `COC1(CNc2cc3n(n2)CCN(C(=O)Nc2ccc(F)c(Cl)c2)C3)CCC1` [Example 18, N-(3-chloro-4-fluorophenyl)-2-{[(1-methoxycyclobutyl)methyl]amino}-4H,5H,6H,7H-pyrazolo[1,5-a]pyrazine-5-carboxamide] cannot be ordered by pEC50: > 6.00 for the first, > 6.00 for the second.

First: O=C(Nc1ccc(F)c(Cl)c1)N1CCn2nc(NCC3CCCOC3)cc2C1 (centres unmarked) [Example 16, N-(3-chloro-4-fluorophenyl)-2-{[(oxan-3-yl)methyl]amino}-4H,5H,6H,7H-pyrazolo[1,5-a]pyrazine-5-carboxamide]
Second: CC1(CNc2cc3n(n2)CCN(C(=O)Nc2ccc(F)c(Cl)c2)C3)CCOC1 (centres unmarked) [Example 20, N-(3-chloro-4-fluorophenyl)-2-{[(3-methyloxolan-3-yl)methyl]amino}-4H,5H,6H,7H-pyrazolo[1,5-a]pyrazine-5-carboxamide]
The pEC50 of the first is lower: 5.00 to 6.00 for the first, > 6.00 for the second.

`CC(C)(CO)CNc1cc2n(n1)CCN(C(=O)Nc1ccc(F)c(Cl)c1)C2` [Example 17, N-(3-chloro-4-fluorophenyl)-2-[(3-hydroxy-2,2-dimethylpropyl)amino]-4H,5H,6H,7H-pyrazolo[1,5-a]pyrazine-5-carboxamide] and `CCC(C)(CO)CNc1cc2n(n1)CCN(C(=O)Nc1ccc(F)c(Cl)c1)C2` (centres unmarked) [Example 22, N-(3-chloro-4-fluorophenyl)-2-[(2-ethyl-3-hydroxy-2-methylpropyl)amino]-4H,5H,6H,7H-pyrazolo[1,5-a]pyrazine-5-carboxamide] cannot be ordered by pEC50: > 6.00 for the first, > 6.00 for the second.

`COC1CCC(Nc2cc3n(n2)CCN(C(=O)Nc2ccc(F)c(Cl)c2)C3)CC1` (centres unmarked) [Example 19, N-(3-chloro-4-fluorophenyl)-2-[(4-methoxycyclohexyl)amino]-4H,5H,6H,7H-pyrazolo[1,5-a]pyrazine-5-carboxamide] and `COC(=O)N1CCC(C(=O)Nc2cc3n(n2)CCN(C(=O)Nc2ccc(F)c(Cl)c2)C3)CC1` [Example 30, methyl 4-({5-[(3-chloro-4-fluorophenyl)carbamoyl]-4H,5H,6H,7H-pyrazolo[1,5-a]pyrazin-2-yl}carbamoyl)piperidine-1-carboxylate] cannot be ordered by pEC50: > 6.00 for the first, > 6.00 for the second.

`O=C(Nc1ccc(F)c(Cl)c1)N1CCn2nc(NCC3(CO)CCC3)cc2C1` [Example 21, N-(3-chloro-4-fluorophenyl)-2-({[1-(hydroxymethyl)cyclobutyl]methyl}amino)-4H,5H,6H,7H-pyrazolo[1,5-a]pyrazine-5-carboxamide] and `O=C(Nc1ccc(F)c(Cl)c1)N1CCn2nc(NCC3(O)CCC3)cc2C1` [Example 33, N-(3-chloro-4-fluorophenyl)-2-{[(1-hydroxycyclobutyl)methyl]amino}-4H,5H,6H,7H-pyrazolo[1,5-a]pyrazine-5-carboxamide] cannot be ordered by pEC50: > 6.00 for the first, > 6.00 for the second.

`CC(C)OC1(CNc2cc3n(n2)CCN(C(=O)Nc2ccc(F)c(Cl)c2)C3)CCC1` [Example 24, N-(3-chloro-4-fluorophenyl)-2-({[1-(propan-2-yloxy)cyclobutyl]methyl}amino)-4H,5H,6H,7H-pyrazolo[1,5-a]pyrazine-5-carboxamide] and `COC1(CNc2cc3n(n2)CCN(C(=O)Nc2ccc(F)c(Cl)c2)C3)CCOC1` (centres unmarked) [Example 25, N-(3-chloro-4-fluorophenyl)-2-{[(3-methoxyoxolan-3-yl)methyl]amino}-4H,5H,6H,7H-pyrazolo[1,5-a]pyrazine-5-carboxamide] fall in the same range of pEC50: 5.00 to 6.00 for the first, 5.00 to 6.00 for the second.

`O=C(Nc1ccc(F)c(Cl)c1)N1CCn2nc(NC3(c4ccccc4)CC3)cc2C1` [Example 27, N-(3-chloro-4-fluorophenyl)-2-[(1-phenylcyclopropyl)amino]-4H,5H,6H,7H-pyrazolo[1,5-a]pyrazine-5-carboxamide] and `O=C(Nc1cc2n(n1)CCN(C(=O)Nc1ccc(F)c(Cl)c1)C2)C1CCN(c2ccncc2)CC1` [Example 28, N-{5-[(3-chloro-4-fluorophenyl)carbamoyl]-4H,5H,6H,7H-pyrazolo[1,5-a]pyrazin-2-yl}-1-(pyridin-4-yl)piperidine-4-carboxamide] cannot be ordered by pEC50: > 6.00 for the first, > 6.00 for the second.

For `O=C(Nc1cc2n(n1)CCN(C(=O)Nc1ccc(F)c(Cl)c1)C2)C1CCNC(C(F)(F)F)C1` (centres unmarked) [Example 29, N-{5-[(3-chloro-4-fluorophenyl)carbamoyl]-4H,5H,6H,7H-pyrazolo[1,5-a]pyrazin-2-yl}-2-(trifluoromethyl)piperidine-4-carboxamide], the pEC50 was > 6.00.
